From patent publication US20190046600A1, “COMPOSITIONS AND USES THEREOF” (priority 2016, published 2019)
pIC50: −log10 of the molar value. “Also recorded” adds a separate entry of the source. Square brackets hold non-standard residues; d marks the D form. Peptide text beside a SMILES is read from it. Phe(4-guanidino) = N=C(N)Nc1ccc(C[C@H](N)C(=O)O)cc1

How the values were obtained:
[1] = tested on: NCI-H460 human non-small cell cancer; assay: In vitro cytotoxicity of Olaparib on NCI-H460, alamarBlue, 96 h; format: cell-based; conditions: 30 nM Olaparib
Experimental: 2) Cells were harvested and seeded into 96-well plates at 500 cells/well. […] Final DMSO concentration was 0.3%. 4) Cells were grown with compound for 96 hours at 37° C. 5% CO2 in a humidified atmosphere. 5) AlamarBlue® cell viability reagent (Life Technologies, Inc.) 10% (v/v) was then added and incubated for a further 4 hours, and fluorescent product detected using the BMG FLUOstar plate reader. 6) Data were analysed using a 4-parameter logistic equation in GraphPad Prism.

NCI-H460 cells [2] = assay: HILR-001 with or without 30 nM Olaparib on NCI-H460, alamarBlue and CellTiter-Glo time course; format: cell-based, human
Experimental: At each time point cell viability was measured by two assay readouts, alamarBlue® and CellTiter-Glo. Conversion of alamarBlue® to a fluorescent product serves as a readout of the metabolic activity of cells, whereas CellTiter-Glo is based on quantification of the ATP present.
2) Cells were harvested and seeded into 96-well plates at 500 cells/well. 3) HILR-001 was made up from a 10 mM stock solution and added directly to cells in doubling dilutions starting at 200 μM. […] The total final DMSO concentration was 0.25%. 4) Cells were grown with compound for 24, 48, 72 or 96 hours at 37° C. 5% CO2 in a humidified atmosphere. 5) AlamarBlue® 10% (v/v) was then added and incubated for a further 4 hours, and fluorescent product detected using the BMG FLUOstar plate reader. 6) On duplicate plates the media was removed from the cells, CellTiter-Glo was diluted in PBS (1:10) and 100 μl added to the cells. 7) Plates were mixed on an orbital shaker for 2 minutes and incubated for a further 10 minutes at room temperature. Luminescent signal was then measured using the BMG FLUOstar plate reader.

[3] = target: T1, recombinant human caspase 3 (Homo sapiens, UniProt P42574); assay: Apo-ONE Homogeneous Caspase-3/7 assay with recombinant caspase-3; format: biochemical; conditions: 0.1 or 0.3 U enzyme
T1 construct: purchased Enzo Life Sciences BML-SE169-5000
T1 sequence (P42574 29-175 limits assumed): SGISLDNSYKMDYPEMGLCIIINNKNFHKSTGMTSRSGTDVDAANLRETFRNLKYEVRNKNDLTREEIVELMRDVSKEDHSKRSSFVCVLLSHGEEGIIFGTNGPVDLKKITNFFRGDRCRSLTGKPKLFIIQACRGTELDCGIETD
T1 sequence (P42574 176-277 limits assumed): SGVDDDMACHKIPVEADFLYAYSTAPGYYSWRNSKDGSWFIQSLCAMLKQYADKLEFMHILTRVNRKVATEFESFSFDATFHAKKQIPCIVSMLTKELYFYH
Excerpt: DEVD-CHO was used as a positive control.
The Promega kit consists of a buffer that supports caspase 3/7 enzymatic activity and the caspase-3/7 substrate rhodamine 110, bis-(N-CBZL-aspartyl-L-glutamyl-L-valyl-L-aspartic acid amide; Z-DEVD-R110) Z-DEVD-R110 exists as a pro-fluorescent substrate prior to the assay;
upon sequential cleavage and removal of the DEVD peptides by caspase-3/7 activity and excitation at 499 nm, the rhodamine 110 leaving group becomes fluorescent. The amount of fluorescent product generated is reported to be proportional to the amount of caspase-3/7 cleavage that occurs in the sample.
In all subsequent experiments, 0.1 U enzyme was used and plate reader settings were adjusted to read every 5 min for 2h.
The DEVD-CHO control or HILR-030 were co-incubated for 2 hours with substrate or human recombinant caspase-3 according to the protocol in the table below.

[4] = tested on: Lactate Dehydrogenase A [LDHA]; assay: LDH activity assay on lysates of treated NCI-H460 cells (Abcam ab102526); format: cell-based, human; conditions: NCI-H460 cells treated 24 h or 96 h, normalised to protein; read-out: IC50 for inhibiting the activity of LDH
Experimental: An LDH activity assay was conducted on samples derived from NCI-H460 cells treated with 2 test compounds (HILR-025 and HILR-030) for either 24h or 96h. […] Therefore a BCA assay was conducted to estimate the total amount of protein present in each LDH assay lysate and this was used to normalise the enzyme activity data. As an indication of cell viability, an Alamar blue assay was also carried out at both timepoints, to serve as an additional point of reference.
2) Cells were harvested and seeded into 96-well plates at either 500 cells/well (for the 96h timepoint) or 5000 cells/well for the 24h timepoint. […] 6) At the end of the assay (24 or 96h), Alamar blue 10% (v/v) was added to one set of plates, incubated for a further 4 hours, and fluorescent product detected using the BMG FLUOstar plate reader. […] 10) LDH activity was measured in the cleared lysates using an LDH activity kit (Abcam, ab102526). 11) After preparation of the LDH activity assay reactions, according to the manufacturer's instructions, absorbance at 450 nm was measured at the initial time to determine (A450)initial 12) Further absorbance readings were taken at 3 minute intervals for up to 15 minutes. […] 16) The LDH activity of each sample was determined by the following equation:
[formula] […] Protein content in remaining cleared lysates was determined using a BCA assay (ThermoScientific). • b. Data were analysed using GraphPad Prism. […]

NCI-H460 cells [5] = conditions: NCI-H460, 96 hours with compound, alamarBlue
Experimental: Methods measuring cell viability include the use of alamarBlue® cell viability reagent (Life Technologies, Inc.) (resazurin) with fluorescence detection.
1) NCI-H460 cells were grown in Ham's F12 media supplemented with 10% FBS. 2) Cells were harvested and seeded into 96-well plates at 500 cells/well. 3) Compounds were made up from stock solutions and added directly to cells in doubling dilutions starting at 200 μM. Final DMSO concentration was 0.2%. 4) Cells were grown with compound for 96 hours at 37° C. 5% CO2 in a humidified atmosphere. 5) A resazurin dye composition (AlamarBlue® cell viability reagent (Life Technologies, Inc.)) 10% (v/v) was then added and incubated for a further 4 hours, and fluorescent product detected using the BMG FLUOstar plate reader. 6) Media only background readings were subtracted before data were analysed using a 4-parameter logistic equation in GraphPad Prism.

[6] = 30 nM Olaparib co-incubated with 50 μM HILR-001

| pIC50 (NCI-H460 cells [5]) | Compound | toxicity to NCI-H460 cells [1] | ATP levels (CellTiter-Glo) (NCI-H460 cells [2]; [6]) | HILR-001-mediated cell death (alamarBlue) (NCI-H460 cells [2]; [6]) | ATP levels or cancer cell death (NCI-H460 cells [2]; Olaparib with higher doses of HILR-001 (100 μM and 200 μM)) | caspase-3 activity [3] | pIC50 [4] |
| --- | --- | --- | --- | --- | --- | --- | --- |
| – | O=C(c1cc(Cc2n[nH]c(=O)c3ccccc23)ccc1F)N1CCN(C(=O)C2CC2)CC1 [Olaparib, 4-[3-(4-cyclopropanecarbonylpiperazine-1-carbonyl)-4-fluorobenzyl]-2H-phthalazin-1-one] | non-toxic | partially reverses the HILR-001-induced fall in ATP; also recorded: partially restored ATP levels | reversed 50 μM HILR-001-mediated cell death | did not affect ATP levels or cancer cell death | – | – |
| 5.22 | CC(C)[C@@H]1NC(=O)[C@@H]2CCCN2C(=O)[C@H](CCCNC(=N)N)NC(=O)[C@@H]2CCCN2C(=O)CNC(=O)[C@H](CCCNC(=N)N)NC(=O)[C@@H]2CCCN2C(=O)[C@H](Cc2c[nH]c3ccccc23)NC(=O)[C@H](Cc2c[nH]c3ccccc23)NC(=O)[C@H](Cc2ccc(NC(=N)N)cc2)NC(=O)[C@H](Cc2ccc(NC(=N)N)cc2)NC(=O)[C@H](Cc2c[nH]c3ccccc23)NC(=O)[C@H](Cc2c[nH]c3ccccc23)NC(=O)[C@H](Cc2ccc(NC(=N)N)cc2)NC(=O)[C@H](Cc2ccc(NC(=N)N)cc2)NC(=O)[C@H](Cc2c[nH]c3ccccc23)NC(=O)[C@H](Cc2c[nH]c3ccccc23)NC1=O [HILR-030] (cyclo(PRGPRPVWW[Phe(4-guanidino)][Phe(4-guanidino)]WW[Phe(4-guanidino)][Phe(4-guanidino)]WW)) | – | – | – | – | inhibited the caspase-3 activity in a dose-dependent fashion | 4.66 |
